Literature values, collected in patent US8236817B2, “Polymorphs of 1-cyclopropy1-7-([s,s])-2,8-diazadicyclo[4.3.0]non-8-yl)-6-fluoro-1,4-dihydro-8-methoxy-4-oxo-3-quinoline carboxylic acid hydrochloride and methods for the preparation thereof” (Chemi S.p.A., priority 2003, dated 2012).

Details: solid form exposed to atmosphere; stated in U.S. Pat. No. 5,849,752

In the case of COc1c(N2C[C@@H]3CCCN[C@@H]3C2)c(F)cc2c(=O)c(C(=O)O)cn(C3CC3)c12.Cl [anhydrous form], the hygroscopicity is listed as “absorbs water from the atmosphere”.
